Active and inactive are the calls of the source.
Key:
[1] = target: Mitochondrial peptide methionine sulfoxide reductase (Bos taurus, UniProt P54149); experiment: Absorbance-based biochemical high throughput dose response assay for activators of Methionine sulfoxide reductase A (MsrA).; format: functional
[2] = target: Dual specificity protein kinase CLK1 (Homo sapiens, UniProt P49759); experiment: inhibition of human CLK1 activity – biochemical, cherry-picked samples, selectivity assay for Dyrk1A inhibitor project, dose response (AID 588811)
[3] = inhibition of ARNT PAS-B/TACC3 complex formation – biochemical, AlphaScreen, cherry-picked samples, confirmation (AID 651703); format: functional, Homo sapiens;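 also: His-tagged ARNT PAS-B domain paired with GST-TACC3 E629A dimer coactivator fragment; potency of inhibitors that break up the complex and lower AlphaScreen signal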
[4] = target: T1, Sentrin-specific protease 8 (Homo sapiens, UniProt Q96LD8); experiment: inhibition of human SENP8 cleavage activity – biochemical, luminescence, SAR follow-up (AID 504501); format: functional
T1 sequence (Q96LD8 whole entry): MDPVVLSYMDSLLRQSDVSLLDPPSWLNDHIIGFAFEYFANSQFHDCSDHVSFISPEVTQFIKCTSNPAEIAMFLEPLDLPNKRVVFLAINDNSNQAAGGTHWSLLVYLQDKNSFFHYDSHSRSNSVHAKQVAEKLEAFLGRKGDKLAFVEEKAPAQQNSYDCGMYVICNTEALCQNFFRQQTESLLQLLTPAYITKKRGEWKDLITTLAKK

Caspase-3 = target: T2, Caspase-3 (Homo sapiens, UniProt P42574); experiment: SAR Analysis of small molecule inhibitors of Sentrin-specific proteases (SENPs) using a Caspase-3 Selectivity assay. [Related pubchem assays (depositor defined):AID2540, AID2599, AID434973, AID489001]; format: functional
T2 sequence (P42574 whole entry): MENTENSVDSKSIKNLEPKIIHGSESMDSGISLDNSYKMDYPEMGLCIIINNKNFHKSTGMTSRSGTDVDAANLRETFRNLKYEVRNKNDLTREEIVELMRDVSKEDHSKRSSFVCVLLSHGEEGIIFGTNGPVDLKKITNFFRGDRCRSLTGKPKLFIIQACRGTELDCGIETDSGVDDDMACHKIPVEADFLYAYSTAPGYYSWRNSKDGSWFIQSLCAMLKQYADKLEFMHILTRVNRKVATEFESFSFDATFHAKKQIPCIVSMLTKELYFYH

[5] = target: T3, Sentrin-specific protease 6 (Homo sapiens, UniProt Q9GZR1); experiment: SAR Analysis of small molecule inhibitors of Sentrin-specific protease 6 (SENP6) using a Luminescent assay. [Related pubchem assays (depositor defined):AID2582, AID2599]; format: functional
T3 sequence (Q9GZR1 whole entry): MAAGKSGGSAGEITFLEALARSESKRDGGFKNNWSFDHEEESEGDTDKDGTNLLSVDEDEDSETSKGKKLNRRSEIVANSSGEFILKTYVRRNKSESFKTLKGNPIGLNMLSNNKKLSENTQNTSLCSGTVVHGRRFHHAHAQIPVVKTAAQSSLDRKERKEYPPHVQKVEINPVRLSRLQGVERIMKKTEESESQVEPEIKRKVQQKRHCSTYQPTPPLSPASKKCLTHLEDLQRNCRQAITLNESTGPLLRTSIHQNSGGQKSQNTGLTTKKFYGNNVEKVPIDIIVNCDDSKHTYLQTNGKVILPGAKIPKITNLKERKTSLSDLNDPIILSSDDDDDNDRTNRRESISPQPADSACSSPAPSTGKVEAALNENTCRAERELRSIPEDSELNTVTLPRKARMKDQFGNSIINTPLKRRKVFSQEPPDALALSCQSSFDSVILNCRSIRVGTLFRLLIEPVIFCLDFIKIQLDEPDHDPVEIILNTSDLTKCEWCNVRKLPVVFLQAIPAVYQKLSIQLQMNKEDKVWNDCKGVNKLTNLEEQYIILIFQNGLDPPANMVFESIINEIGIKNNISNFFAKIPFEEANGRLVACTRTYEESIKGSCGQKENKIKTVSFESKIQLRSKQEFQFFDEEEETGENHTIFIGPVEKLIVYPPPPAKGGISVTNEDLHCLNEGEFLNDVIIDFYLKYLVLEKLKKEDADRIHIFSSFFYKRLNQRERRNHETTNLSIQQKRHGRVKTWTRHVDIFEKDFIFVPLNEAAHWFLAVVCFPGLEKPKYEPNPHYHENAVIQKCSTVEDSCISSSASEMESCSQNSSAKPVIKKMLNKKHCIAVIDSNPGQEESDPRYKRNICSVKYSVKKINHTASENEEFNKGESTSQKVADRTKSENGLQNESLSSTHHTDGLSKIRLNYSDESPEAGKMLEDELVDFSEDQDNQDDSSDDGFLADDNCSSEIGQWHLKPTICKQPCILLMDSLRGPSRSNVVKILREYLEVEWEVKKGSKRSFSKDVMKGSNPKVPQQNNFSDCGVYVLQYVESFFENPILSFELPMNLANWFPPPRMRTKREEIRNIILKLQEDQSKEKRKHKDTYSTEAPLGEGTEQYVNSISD

[6] = target: T4, Sentrin-specific protease 7 (Homo sapiens, UniProt Q9BQF6); experiment: inhibition of human SENP7 cleavage activity – biochemical, luminescence, SAR follow-up (AID 504497); format: functional
T4 sequence (Q9BQF6 whole entry): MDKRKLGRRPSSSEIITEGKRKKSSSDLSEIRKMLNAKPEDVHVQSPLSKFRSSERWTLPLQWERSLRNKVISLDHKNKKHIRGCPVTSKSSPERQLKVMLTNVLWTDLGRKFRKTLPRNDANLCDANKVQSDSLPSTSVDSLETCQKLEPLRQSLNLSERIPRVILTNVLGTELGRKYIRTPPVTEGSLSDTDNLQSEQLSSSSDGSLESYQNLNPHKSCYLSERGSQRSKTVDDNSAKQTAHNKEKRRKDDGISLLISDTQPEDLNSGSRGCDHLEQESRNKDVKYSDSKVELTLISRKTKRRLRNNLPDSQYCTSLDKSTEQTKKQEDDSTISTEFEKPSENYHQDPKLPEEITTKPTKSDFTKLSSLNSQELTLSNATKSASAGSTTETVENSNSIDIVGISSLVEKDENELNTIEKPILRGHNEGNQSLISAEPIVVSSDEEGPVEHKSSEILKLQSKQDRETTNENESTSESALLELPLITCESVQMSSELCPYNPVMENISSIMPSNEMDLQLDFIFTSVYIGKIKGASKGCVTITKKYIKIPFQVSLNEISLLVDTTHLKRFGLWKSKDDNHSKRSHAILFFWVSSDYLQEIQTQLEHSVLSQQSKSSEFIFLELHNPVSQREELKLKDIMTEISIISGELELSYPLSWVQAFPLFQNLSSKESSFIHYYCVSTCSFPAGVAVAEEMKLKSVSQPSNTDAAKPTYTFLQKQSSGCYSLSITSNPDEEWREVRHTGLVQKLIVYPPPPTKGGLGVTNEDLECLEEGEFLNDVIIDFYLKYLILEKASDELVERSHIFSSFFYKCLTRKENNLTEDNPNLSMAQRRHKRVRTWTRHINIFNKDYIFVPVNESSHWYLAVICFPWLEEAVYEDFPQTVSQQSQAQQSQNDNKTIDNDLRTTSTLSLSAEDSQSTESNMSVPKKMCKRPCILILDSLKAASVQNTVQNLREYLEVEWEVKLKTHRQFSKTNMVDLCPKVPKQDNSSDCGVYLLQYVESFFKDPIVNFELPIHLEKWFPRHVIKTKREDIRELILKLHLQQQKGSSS

Protein Wnt-3a = Protein Wnt-3a (Mus musculus, UniProt P27467); experiment: antagonism of Wnt3a pathway luciferase reporter – Wnt-LIGHT cells, luminescence, selectivity assay for Gli-SUFU antagonist project, dose response (AID 651570); format: functional; details: read-out: IC50_Mean;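 also: Wnt-LIGHT reporter cells stimulated with conditioned medium from Wnt3a-producing cells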
[7] = target: Beta-2 adrenergic receptor (Homo sapiens, UniProt P07550); experiment: ADRB2 activation measured by internalization – cell-based, FAP fluorogen, flow cytometry, cherry pick 1, dose response (AID 588763); format: functional
[8] = target: Induced myeloid leukemia cell differentiation protein Mcl-1 (Homo sapiens, UniProt Q07820); format: functional
[9] = target: Hepatocyte nuclear factor 4-alpha (Homo sapiens, UniProt P41235); format: functional, cell-based;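 also: biochemical luminescence-based dose-response counterscreen measuring inhibition of HNF4 dimerization, run alongside a screen for blockers of ABHD5–perilipin-5 interaction; split luciferase complementation of HNF4 fusion proteins in cell lysate measuring dimerization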
[10] = target: Adenosylmethionine-8-amino-7-oxononanoate aminotransferase (Mycobacterium tuberculosis, UniProt P9WQ81); experiment: Mycobacterium tuberculosis BioA enzyme inhibitor Measured in Biochemical System Using Plate Reader - 2163-02_Inhibitor_Dose_CherryPick_Activity.; format: functional, Mycobacterium tuberculosis UT205
[11] = target: T5, Rac GTPase-activating protein 1 (Homo sapiens, UniProt Q9H0H5); experiment: blockers of MgcRacGAP-driven Rac1 GTP hydrolysis – biochemical, ADP Hunter fluorescence, primary and confirmatory, confirmation (AID 624330); format: functional
T5 sequence (Q9H0H5 whole entry): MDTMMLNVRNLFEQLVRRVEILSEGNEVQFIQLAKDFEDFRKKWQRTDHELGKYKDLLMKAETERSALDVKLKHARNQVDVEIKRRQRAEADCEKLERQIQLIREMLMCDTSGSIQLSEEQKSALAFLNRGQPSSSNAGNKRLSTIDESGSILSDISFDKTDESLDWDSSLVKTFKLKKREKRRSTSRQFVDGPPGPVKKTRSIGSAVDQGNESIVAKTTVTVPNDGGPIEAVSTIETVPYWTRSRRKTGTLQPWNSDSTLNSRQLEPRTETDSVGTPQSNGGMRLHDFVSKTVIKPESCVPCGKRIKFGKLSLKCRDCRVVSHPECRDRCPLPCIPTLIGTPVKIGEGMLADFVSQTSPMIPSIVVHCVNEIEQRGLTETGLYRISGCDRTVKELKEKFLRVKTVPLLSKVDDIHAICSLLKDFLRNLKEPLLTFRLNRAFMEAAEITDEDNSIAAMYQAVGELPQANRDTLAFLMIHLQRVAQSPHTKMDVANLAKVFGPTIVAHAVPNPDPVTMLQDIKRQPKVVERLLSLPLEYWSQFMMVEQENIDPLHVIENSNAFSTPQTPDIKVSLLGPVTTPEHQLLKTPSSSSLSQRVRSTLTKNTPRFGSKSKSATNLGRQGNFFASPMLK

[12] = target: Dual specificity tyrosine-phosphorylation-regulated kinase 1A (Rattus norvegicus, UniProt Q63470); format: biochemical, Homo sapiens
[13] = target: Photoreceptor-specific nuclear receptor (Homo sapiens, UniProt Q9Y5X4); format: functional, cell-based;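 also: CHO-S cells with Gal4-NCOR and VP16-NR2E3 two-hybrid luciferase reporter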
[14] = Luminescence Cell-Based Dose Retest to Confirm Inhibitors of Cancer Stem Cells. [Related pubchem assays (depositor defined):AID2717, AID2721]; format: functional; details: Homo sapiens
[15] = HEK-293T viability loss after treatment – luminescence, T-cell screen hits, cytotoxicity control for TCR NF-kB inhibitor project, dose response (AID 489026); format: functional, cell-based;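 also: cells exposed to compound about 14 hours before the viability readout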
Cytochrome P450 2C19 = Cytochrome P450 2C19 (Homo sapiens, UniProt P33261); experiment: Cytochrome panel assay with activity outcomes. Panel member name: p450-cyp2c19 Compounds with AC50 equal or less than 10 uM are considered active; format: functional; details: read-out: AC50
INS1 = experiment: INS-1E survival protection against cytokine death – cell-based, luminescence, retest, dose response (AID 449756); format: functional; details: Rattus norvegicus;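 also: cell death triggered by IL-1 beta plus TNF-alpha plus IFN-gamma mixture; protective hits raise ATP signal compared with cytokine alone wells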
Vero = experiment: cells; format: functional; details: Chlorocebus sabaeus
[16] = target: Voltage-gated inwardly rectifying potassium channel KCNH2 (Homo sapiens, UniProt Q12809); details: Potency;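 also: confirmatory quantitative high-throughput screen measuring inhibition of hERG channel activity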
Voltage-gated inwardly rectifying potassium channel KCNH2, sequence (Q12809 whole entry): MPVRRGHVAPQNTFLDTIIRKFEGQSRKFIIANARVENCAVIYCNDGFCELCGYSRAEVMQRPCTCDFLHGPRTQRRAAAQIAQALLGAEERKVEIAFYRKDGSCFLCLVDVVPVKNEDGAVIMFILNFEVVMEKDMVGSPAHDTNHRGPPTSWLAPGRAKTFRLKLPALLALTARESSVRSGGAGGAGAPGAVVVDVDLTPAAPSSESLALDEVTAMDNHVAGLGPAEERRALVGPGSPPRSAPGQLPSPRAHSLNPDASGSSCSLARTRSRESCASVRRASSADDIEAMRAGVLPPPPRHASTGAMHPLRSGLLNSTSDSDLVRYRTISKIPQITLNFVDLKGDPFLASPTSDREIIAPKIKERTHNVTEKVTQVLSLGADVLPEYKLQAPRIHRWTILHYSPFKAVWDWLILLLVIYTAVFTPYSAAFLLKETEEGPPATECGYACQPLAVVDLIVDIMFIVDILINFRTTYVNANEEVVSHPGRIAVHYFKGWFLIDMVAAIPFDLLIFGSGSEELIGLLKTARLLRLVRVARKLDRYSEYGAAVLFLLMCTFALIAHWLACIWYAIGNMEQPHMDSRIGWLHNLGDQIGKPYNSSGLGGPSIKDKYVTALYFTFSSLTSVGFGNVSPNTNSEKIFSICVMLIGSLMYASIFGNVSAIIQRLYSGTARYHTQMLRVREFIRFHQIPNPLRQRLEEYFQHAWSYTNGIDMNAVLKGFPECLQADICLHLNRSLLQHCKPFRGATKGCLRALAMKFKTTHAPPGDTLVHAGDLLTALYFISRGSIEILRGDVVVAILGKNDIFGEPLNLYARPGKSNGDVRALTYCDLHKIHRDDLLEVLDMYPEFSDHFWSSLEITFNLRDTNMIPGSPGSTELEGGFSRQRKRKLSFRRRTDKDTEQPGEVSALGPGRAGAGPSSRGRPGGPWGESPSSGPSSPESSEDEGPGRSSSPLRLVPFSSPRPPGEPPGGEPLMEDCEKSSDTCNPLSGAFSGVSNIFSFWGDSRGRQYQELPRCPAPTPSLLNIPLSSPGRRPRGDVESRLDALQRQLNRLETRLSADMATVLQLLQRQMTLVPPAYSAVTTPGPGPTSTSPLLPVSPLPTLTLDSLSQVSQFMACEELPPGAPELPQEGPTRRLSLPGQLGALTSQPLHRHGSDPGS

Dual specificity protein kinase CLK1, sequence (P49759 whole entry, the tested form may be a part): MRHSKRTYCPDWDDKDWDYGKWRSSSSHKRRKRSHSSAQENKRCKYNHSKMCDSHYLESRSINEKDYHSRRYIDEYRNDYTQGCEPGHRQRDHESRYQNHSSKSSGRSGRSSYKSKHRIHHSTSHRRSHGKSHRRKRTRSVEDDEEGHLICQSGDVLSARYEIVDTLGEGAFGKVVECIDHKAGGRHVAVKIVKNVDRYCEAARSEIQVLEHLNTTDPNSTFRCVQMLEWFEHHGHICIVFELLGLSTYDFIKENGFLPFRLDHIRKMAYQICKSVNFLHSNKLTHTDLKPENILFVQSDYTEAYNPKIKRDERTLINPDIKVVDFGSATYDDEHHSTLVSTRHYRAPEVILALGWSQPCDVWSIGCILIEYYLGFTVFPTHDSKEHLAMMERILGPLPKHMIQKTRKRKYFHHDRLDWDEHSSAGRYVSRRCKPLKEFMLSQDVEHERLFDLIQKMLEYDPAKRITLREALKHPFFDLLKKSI
Adenosylmethionine-8-amino-7-oxononanoate aminotransferase, sequence (P9WQ81 whole entry): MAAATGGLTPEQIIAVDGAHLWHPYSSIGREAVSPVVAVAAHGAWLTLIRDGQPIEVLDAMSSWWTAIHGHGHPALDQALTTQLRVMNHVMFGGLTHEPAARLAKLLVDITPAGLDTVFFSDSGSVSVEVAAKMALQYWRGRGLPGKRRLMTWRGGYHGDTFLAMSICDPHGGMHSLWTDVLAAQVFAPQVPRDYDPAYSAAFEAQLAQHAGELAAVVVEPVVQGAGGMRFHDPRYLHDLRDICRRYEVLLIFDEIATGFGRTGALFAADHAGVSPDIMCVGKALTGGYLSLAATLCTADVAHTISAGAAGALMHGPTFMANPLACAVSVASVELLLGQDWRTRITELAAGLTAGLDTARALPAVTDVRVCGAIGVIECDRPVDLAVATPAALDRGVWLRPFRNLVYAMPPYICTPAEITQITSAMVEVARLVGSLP
Beta-2 adrenergic receptor, sequence (P07550 whole entry): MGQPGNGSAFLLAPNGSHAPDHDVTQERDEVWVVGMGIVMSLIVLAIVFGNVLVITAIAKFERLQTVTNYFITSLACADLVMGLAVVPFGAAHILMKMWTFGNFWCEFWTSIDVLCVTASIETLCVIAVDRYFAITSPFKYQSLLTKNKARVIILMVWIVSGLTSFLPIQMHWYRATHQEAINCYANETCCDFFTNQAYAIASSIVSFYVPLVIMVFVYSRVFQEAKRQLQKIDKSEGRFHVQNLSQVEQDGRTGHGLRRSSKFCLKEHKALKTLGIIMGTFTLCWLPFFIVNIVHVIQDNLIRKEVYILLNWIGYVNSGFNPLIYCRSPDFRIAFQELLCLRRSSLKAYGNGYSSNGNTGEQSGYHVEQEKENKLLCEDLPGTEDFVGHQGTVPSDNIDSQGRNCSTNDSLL
Hepatocyte nuclear factor 4-alpha, sequence (P41235 whole entry, the tested form may be a part): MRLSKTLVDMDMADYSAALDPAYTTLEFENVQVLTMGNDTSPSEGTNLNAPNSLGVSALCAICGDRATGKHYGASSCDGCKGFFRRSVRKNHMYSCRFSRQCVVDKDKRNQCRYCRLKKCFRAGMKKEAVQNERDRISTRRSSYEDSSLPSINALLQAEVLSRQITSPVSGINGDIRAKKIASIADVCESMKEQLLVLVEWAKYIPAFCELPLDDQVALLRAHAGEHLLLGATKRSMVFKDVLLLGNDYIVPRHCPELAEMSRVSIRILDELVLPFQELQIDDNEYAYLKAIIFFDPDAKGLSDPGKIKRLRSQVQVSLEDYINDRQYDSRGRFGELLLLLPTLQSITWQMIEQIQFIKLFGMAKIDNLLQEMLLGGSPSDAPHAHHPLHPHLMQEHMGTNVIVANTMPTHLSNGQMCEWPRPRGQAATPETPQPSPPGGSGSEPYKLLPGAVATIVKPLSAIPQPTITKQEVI
Protein Wnt-3a, sequence (P27467 whole entry): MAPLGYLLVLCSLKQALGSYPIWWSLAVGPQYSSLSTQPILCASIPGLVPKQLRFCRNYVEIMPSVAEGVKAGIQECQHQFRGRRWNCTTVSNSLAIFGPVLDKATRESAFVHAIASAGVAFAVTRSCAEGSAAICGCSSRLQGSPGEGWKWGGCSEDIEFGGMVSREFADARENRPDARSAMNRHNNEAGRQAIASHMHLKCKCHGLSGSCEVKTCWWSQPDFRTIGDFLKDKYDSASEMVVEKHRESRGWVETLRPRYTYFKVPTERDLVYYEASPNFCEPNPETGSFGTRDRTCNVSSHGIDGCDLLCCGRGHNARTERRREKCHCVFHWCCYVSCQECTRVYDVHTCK
Mitochondrial peptide methionine sulfoxide reductase, sequence (P54149 whole entry): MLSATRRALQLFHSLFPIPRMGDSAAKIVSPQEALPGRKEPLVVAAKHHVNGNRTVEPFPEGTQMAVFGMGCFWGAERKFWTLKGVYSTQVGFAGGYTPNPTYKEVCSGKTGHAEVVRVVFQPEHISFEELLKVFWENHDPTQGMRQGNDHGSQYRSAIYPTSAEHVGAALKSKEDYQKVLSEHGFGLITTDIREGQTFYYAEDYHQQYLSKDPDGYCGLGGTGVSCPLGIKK
Induced myeloid leukemia cell differentiation protein Mcl-1, sequence (Q07820 whole entry, the tested form may be a part): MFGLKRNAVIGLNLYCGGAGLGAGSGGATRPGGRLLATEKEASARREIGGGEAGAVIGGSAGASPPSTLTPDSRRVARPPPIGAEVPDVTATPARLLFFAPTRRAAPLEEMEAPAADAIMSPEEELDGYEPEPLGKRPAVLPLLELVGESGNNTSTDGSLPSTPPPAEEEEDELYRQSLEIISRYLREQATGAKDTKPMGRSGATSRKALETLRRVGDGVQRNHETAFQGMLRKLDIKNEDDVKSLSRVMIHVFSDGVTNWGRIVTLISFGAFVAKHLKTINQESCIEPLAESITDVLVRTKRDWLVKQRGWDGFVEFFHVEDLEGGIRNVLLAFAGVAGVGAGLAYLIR
Cytochrome P450 2C19, sequence (P33261 whole entry): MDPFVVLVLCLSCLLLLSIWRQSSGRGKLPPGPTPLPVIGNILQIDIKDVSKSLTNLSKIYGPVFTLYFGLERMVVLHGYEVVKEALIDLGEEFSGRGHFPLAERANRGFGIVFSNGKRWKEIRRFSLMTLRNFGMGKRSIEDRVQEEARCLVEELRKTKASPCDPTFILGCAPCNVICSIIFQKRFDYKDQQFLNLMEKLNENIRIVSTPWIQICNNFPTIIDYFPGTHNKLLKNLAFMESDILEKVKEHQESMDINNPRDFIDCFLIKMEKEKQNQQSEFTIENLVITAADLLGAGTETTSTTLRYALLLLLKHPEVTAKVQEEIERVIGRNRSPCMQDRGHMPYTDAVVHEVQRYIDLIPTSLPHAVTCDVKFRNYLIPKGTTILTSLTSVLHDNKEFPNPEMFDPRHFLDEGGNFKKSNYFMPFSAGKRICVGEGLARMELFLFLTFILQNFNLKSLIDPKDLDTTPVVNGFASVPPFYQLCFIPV
Photoreceptor-specific nuclear receptor, sequence (Q9Y5X4 whole entry, the tested form may be a part): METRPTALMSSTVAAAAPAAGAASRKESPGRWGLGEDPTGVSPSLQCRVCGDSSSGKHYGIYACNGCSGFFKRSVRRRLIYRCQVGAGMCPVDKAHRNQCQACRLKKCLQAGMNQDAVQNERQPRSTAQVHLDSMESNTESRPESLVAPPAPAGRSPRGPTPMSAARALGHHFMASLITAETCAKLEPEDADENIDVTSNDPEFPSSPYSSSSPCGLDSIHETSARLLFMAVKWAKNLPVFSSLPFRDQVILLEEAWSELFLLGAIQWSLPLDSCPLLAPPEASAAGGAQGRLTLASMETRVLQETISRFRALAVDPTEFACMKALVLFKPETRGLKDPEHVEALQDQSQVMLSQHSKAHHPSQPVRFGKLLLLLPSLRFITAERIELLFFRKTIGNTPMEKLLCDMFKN

Compound: CC1(C(=O)Nc2ccccc2)CCN1C(=O)Cc1ccc(-c2ccccc2)cc1 (configuration not stated)
- EC50 [1]: > 104 µM (inactive)

Compound: Clc1ccc(CNc2nccc(-c3ccc4c(c3)OCO4)n2)cc1Cl
- AC50 [2]: < 0.00195 µM (active)

Compound: CC(=O)N1CN(Cc2ccccn2)Cc2c1sc1c2CCCC1
- AC50 [3]: 87.9 µM (active)

Compound: Cc1cc(C(F)F)nn1CC(=O)Nc1sc2c(c1C#N)CCC2
- IC50 [4]: > 99 µM (inactive)
- IC50 (Caspase-3): > 99 µM (inactive)
- IC50 [5]: > 99 µM (inactive)
- IC50 [6]: > 99 µM (inactive)

Compound: O=C(NCc1ccccn1)c1c(-c2ccccc2)sc2ccccc12
- AC50 [3]: 121 µM (active)

Compound: CC(=O)c1c(C)[nH]c(C(=O)OCC(=O)Nc2cccc(S(=O)(=O)N3CCCC3)c2)c1C
- IC50 (Protein Wnt-3a): 5.02 µM (active)

Compound: NC(=O)CC(NC(=O)Cc1ccc(Br)cc1)c1ccc(N2CCN(c3ccccn3)CC2)c([N+](=O)[O-])c1 (configuration not stated)
- EC50 [7]: 12.2 µM (inactive)

Compound: CS(=O)(=O)c1ccc(C(=O)NCCN2C(=O)S/C(=C\c3cccnc3)C2=O)cc1[N+](=O)[O-]
- IC50 [8]: 2.17 µM (active)
- IC50 [9]: 5.89 µM (active)

Compound: COc1cccc(NC(=O)CCC2CCN(C(=O)c3ccc(C(C)=O)s3)CC2)c1
- AC50 [10]: 0.508 µM (active)

Compound: CSc1ccc(C(=O)C2CCCN(Cc3cccn3-c3cccnc3)C2)cc1 (configuration not stated)
- EC50 [7]: 0.566 µM (active)

Compound: CC(C)(C)c1cc(C(=O)Nc2cccnc2)cc(C(=O)Nc2cccnc2)c1
- AC50 [10]: 1.28 µM (active)

Compound: CCCCc1ccc2nc(NC(=O)C3CCCCC3)sc2c1
- IC50 [4]: > 99 µM (inactive)
- IC50 (Caspase-3): > 99 µM (inactive)
- IC50 [5]: > 99 µM (inactive)
- IC50 [6]: > 99 µM (inactive)

Compound: c1nc(NCC2CCCC2)c2cc(-c3ccc4c(c3)OCO4)ccc2n1
- AC50 [2]: 0.00361 µM (active)

Compound: Cc1nc2ncccn2c1-c1csc(Nc2ccc(O)cc2)n1
- IC50 (Protein Wnt-3a): 48.9 µM (inactive)
- IC50 [11]: 14.3 µM (active)

Compound: CCCCCNC(=O)C(c1cccc2ccccc12)n1c(=O)c(-c2ccco2)nc2ccccc21 (configuration not stated)
- IC50 [9]: 2.83 µM (active)

Compound: O=C(CSc1nnnn1-c1ccc(O)cc1)Nc1ccc(N2CCOCC2)c(Cl)c1
- AC50 [2]: 8.48 µM (active)
- AC50 [12]: 8.12 µM (active)
- IC50 [13]: 0.488 µM (active)

Compound: CC(C)(C)c1cc(C=C(C#N)C#N)cc(C(C)(C)C)c1O [TYRPHOSTIN A9]
- AC50 [14]: 1.3 µM (active)
- IC50 [15]: > 80 µM (inactive)
- AC50 (Cytochrome P450 2C19): 7.94 µM (inconclusive)
- AC50 (INS1): 0.928 µM (active)
- CC50 (Vero): 1.37 µM (active)
- AC50 [16]: 15.8 µM (inconclusive)

— ChEMBL document CHEMBL1201862, “PubChem BioAssay data set” (2004)
